System: OCI-Ly1
Test: Tumor growth of DLBCL cell line derived xenograft model OCI-Ly1
Assay type: in vivo, mice
Conditions: BCL6 sensitive tumor xenograft model (OCI-Ly1), 10 mg/kg BID
Description: Mice bearing subcutaneous tumors were orally (po) administered vehicle or Compound A at 1, 3, 10, or 30 mg/kg daily for 22 days (qd×22). Dosing began with tumors at an average of 140 mm^3. […] Statistical analyses were performed using 2-way ANOVA: p<0.0001 (****). Error bars represent standard error of the mean (±SEM).
Mice bearing subcutaneous tumors were orally (po) administered vehicle or Compound A at 1, 3, or 10 mg/kg bi-daily for 23 days (bid×23). Dosing began with tumors at an average of 170 mm^3. […] FIG. 7C depicts tumor lysate BCL6 protein levels 16-hours post-last dose analyzed by western blotting. Individual tumor BCL6 levels are shown in a scatter plot, mean is represented by the bar, determined by densitometry, normalized to GAPDH loading controls, and shown as a percentage of vehicle. Percent BCL6 degradation (%) relative to vehicle is shown above each arm. Statistical analyses were performed using 2-way ANOVA: p<0.0001 (****). Error bars represent standard error of the mean (±SEM).

Compound: CNC(=O)COc1cc2cc(Nc3nc(N4CCC(O[C@H]5C[C@H](N6CCC(c7ccc8c(c7F)CN(C7CCC(=O)NC7=O)C8=O)CC6)C5)CC4)ncc3Cl)ccc2n(C(C)C)c1=O (some centres unmarked) [Compound 81, 2-({6-[(5-chloro-2-{4-[(1r,3r)-3-{4-[2-(2,6-dioxopiperidin-3-yl)-4-fluoro-1-oxo-2,3-dihydro-1H-isoindol-5-yl]piperidin-1-yl}cyclobutoxy]piperidin-1-yl}pyrimidin-4-yl)amino]-2-oxo-1-(propan-2-yl)-1,2-dihydroquinolin-3-yl}oxy)-N-methylacetamide]
- Ly-1 TGI @ 10 mg/kg (BID): 100%

Compound: CNC(=O)COc1cc2cc(Nc3nc(N4CCC(O[C@H]5C[C@H](N6CCC(c7ccc8c(c7Cl)CN(C7CCC(=O)NC7=O)C8=O)CC6)C5)CC4)ncc3Cl)ccc2n(C(C)C)c1=O (some centres unmarked) [Compound 163, 2-({6-[(5-chloro-2-{4-[(1r,3r)-3-{4-[4-chloro-2-(2,6-dioxopiperidin-3-yl)-1-oxo-2,3-dihydro-1H-isoindol-5-yl]piperidin-1-yl}cyclobutoxy]piperidin-1-yl}pyrimidin-4-yl)amino]-2-oxo-1-(propan-2-yl)-1,2-dihydroquinolin-3-yl}oxy)-N-methylacetamide]
- Ly-1 TGI @ 10 mg/kg (BID): 95%

Compound: CNC(=O)COc1cc2cc(Nc3nc(N4CCC(O[C@H]5C[C@H](N6CCC(c7cc(C)c8c(c7F)CN(C7CCC(=O)NC7=O)C8=O)CC6)C5)CC4)ncc3Cl)ccc2n(C(C)C)c1=O (some centres unmarked) [Compound 208, 2-({6-[(5-chloro-2-{4-[(1r,3r)-3-{4-[2-(2,6-dioxopiperidin-3-yl)-4-fluoro-7-methyl-1-oxo-2,3-dihydro-1H-isoindol-5-yl]piperidin-1-yl}cyclobutoxy]piperidin-1-yl}pyrimidin-4-yl)amino]-2-oxo-1-(propan-2-yl)-1,2-dihydroquinolin-3-yl}oxy)-N-methylacetamide]
- Ly-1 TGI @ 10 mg/kg (BID): 77%

Compound: CNC(=O)COc1cc2cc(Nc3nc(N4CCC(O[C@H]5C[C@H](N6CC[C@@H](c7ccc8c(c7F)CN([C@H]7CCC(=O)NC7=O)C8=O)C(C)(C)C6)C5)CC4)ncc3Cl)ccc2n(C(C)C)c1=O [Compound 209, 2-({6-[(5-chloro-2-{4-[(1r,3r)-3-[(4R)-4-{2-[(3S)-2,6-dioxopiperidin-3-yl]-4-fluoro-1-oxo-2,3-dihydro-1H-isoindol-5-yl}-3,3-dimethylpiperidin-1-yl]cyclobutoxy]piperiidn-1-yl}pyrimidin-4-yl)amino]-2-oxo-1-(propan-2-yl)-1,2-dihydroquinolin-3-yl}oxy)-N-methylacetamide]
- Ly-1 TGI @ 10 mg/kg (BID): 104%

Compound: CNC(=O)COc1cc2cc(Nc3nc(N4CCC(O[C@H]5C[C@H](N6CCN(c7ccc8c(c7)CN([C@H]7CCC(=O)NC7=O)C8=O)C(C)(C)C6)C5)CC4)ncc3Cl)ccc2n(C(C)C)c1=O [Compound 211, 2-({6-[(5-chloro-2-{4-[(1r,3r)-3-(4-{2-[(3S)-2,6-dioxopiperidin-3-yl]-1-oxo-2,3-dihydro-1H-isoindol-5-yl}-3,3-dimethylpiperazin-1-yl)cyclobutoxy]piperidin-1-yl}pyrimidin-4-yl)amino]-2-oxo-1-(proapn-2-yl)-1,2-dihydroquinolin-3-yl}oxy)-N-methylacetamide]
- Ly-1 TGI @ 10 mg/kg (BID): 87%

— patent US20240335444A1, “MODULATORS OF BCL6 PROTEOLYSIS AND ASSOCIATED METHODS OF USE” (Arvinas Operations, Inc., priority 2023, published 2024)
